Test results from US6645973B1, “Spiro(2h-1-benzopyran-2,4-piperidine)derivatives as glycine transport inhibitors” (Akzo Nobel, priority 1999, dated 2003).
Structures can show the parent of a compound that is named as a salt.

Legend:
[1] = molecular target: T1, human GlyT-1b transporter (Homo sapiens, UniProt P48067); assay: Glycine uptake in CHO cells heterologously expressing the human GlyT-1b transporter ([3H]glycine uptake); format: cell-based; details: CHO cells stably expressing hGlyT-1b, 10 minutes, 37° C.; for IC50: read-out: Inhibition of glycine transport by hGlyT-1, pIC50 (converted)
T1 construct: expressed in transfected cells; host or cells: CHO cells, stably transfected (pcDNA3, Geneticin selection)
T1 sequence (P48067 1-652 isoform P48067-3): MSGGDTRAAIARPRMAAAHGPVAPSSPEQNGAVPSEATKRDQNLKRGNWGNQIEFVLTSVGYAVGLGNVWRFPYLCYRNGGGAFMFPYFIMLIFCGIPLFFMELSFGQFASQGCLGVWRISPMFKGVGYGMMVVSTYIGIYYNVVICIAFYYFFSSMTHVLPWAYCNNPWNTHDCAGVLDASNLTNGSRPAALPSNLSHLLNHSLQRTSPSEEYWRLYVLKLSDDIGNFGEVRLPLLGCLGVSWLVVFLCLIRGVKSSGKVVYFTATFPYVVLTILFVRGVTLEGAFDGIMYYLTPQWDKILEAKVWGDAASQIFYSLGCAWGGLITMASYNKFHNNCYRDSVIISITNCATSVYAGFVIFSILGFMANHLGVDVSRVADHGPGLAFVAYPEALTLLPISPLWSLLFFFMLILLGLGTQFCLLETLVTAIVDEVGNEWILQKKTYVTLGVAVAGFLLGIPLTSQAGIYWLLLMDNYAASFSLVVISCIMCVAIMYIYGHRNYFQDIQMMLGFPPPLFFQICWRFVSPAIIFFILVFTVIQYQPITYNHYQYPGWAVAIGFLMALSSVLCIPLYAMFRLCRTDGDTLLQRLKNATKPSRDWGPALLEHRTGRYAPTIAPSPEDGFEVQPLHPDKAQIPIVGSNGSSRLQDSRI
Description: Method for Determination of Glycine Uptake in CHO Cells Heterologously Expressing the Human GlyT-1b Transporter
A: Cloning: cDNA was generated by PCR according to the method described by Kim, K.-M. et al. Mol. Pharmacol. 1994, 45, 608-617. Sequence was verified by dideoxy sequencing using the ALF DNA sequencer™ (Pharmacia) and cloned into the expression construct pcDNA3 (Invitrogen).
B: Transfection: Transfection of hGlyT-1b into CHO cells was performed using a standard calcium phosphate technique as described by Sambrook, J. et al. (1989) in Molecular Cloning: A Laboratory Manual, Cold Spring Harbor Laboratory, Cold Spring Harbor, N.Y.
C: Selection: Stably transfected cells were selected for 1 week in growth medium containing 1 mg.cm^−3 Geneticin. Individual clones were picked for further analysis and positives passaged routinely as described below.
D: Culture conditions: Cells stably expressing; the hGlyT-1b gene were cultured at 37° C. in a 5% C02 atmosphere in DMEM—NUT.MIX. F12 with Glutamax-1 (Gibco) containing Geneticin (0.5 mg.cm^−3, Gibco) and supplemented with 10% Fetalclone II (Hyclone). Maintenance culture was carried out in standard 80 cm^2 ventilated flasks (2×10^−6 m filter, Nunc) and cells were subcultured by trypsinisation (Sigma) when confluent.
E: Assay Procedure: Cells for uptake studies were plated in 96 well plates (17,000 cells per well) in the absence of Geneticin and cultured for 48 h before use. To measure glycine transport, cells were washed twice with Hanks' balanced salt solution (HBSS) pre-warmed to 37° C. and excess fluid removed before addition of test compounds dissolved in 0.200 cm^3 HBSS. Plates were incubated at 37° C. for 5 minutes before addition of [^3H]glycine (0.050′cm^3, 150×10^−6 M, 248 Bq.nmol^−1, NEN) and incubation continued for a further 10 minutes. Uptake was terminated by washing cells with ice-cold HBSS before removal of excess fluid and addition of 0.200 cm^3 scintillation cocktail to each well. Plates were sealed with adhesive film, shaken to ensure samples were homogenous before scintillation counting in a plate counter.
F: Analysis: Data were analysed using standard curve fitting procedures to produce a plC50 value for active compounds (where plC50 is the negative logarithm of the concentration of test compound causing 50% inhibition of uptake).

Structure (SMILES): O=C([O-])CN1CCC2(C=C(c3ccc(F)cc3)c3ccccc3O2)CC1.[Li+]
- melting point: 285 to 291 °C (dec.)

Structure (SMILES): O=C([O-])CN1CCC2(C=C(c3ccccc3)c3cc(F)ccc3O2)CC1.[Li+]
- melting point: 293 to 298 °C (dec.)

Structure (SMILES): O=C([O-])CN1CCC2(C=C(c3ccccc3)c3ccccc3O2)CC1.[Li+]
- melting point: 280 to 281 °C

Structure (SMILES): O=C([O-])CN1CCC2(CC1)CC(c1ccc(F)cc1)c1ccccc1O2.[Li+] (centres unmarked)
- melting point: 274 to 278 °C (dec.)

Structure (SMILES): O=C(O)CN1CCC2(C=C(c3ccc(Cl)cc3)c3ccccc3O2)CC1 (as salt: hydrochloride) [Example 2, 1′-Carboxymethyl-4-(4-chlorophenyl)spiro[2H-1-benzopyran-2,4′-piperidine]hydrochloride]
- melting point: 259 to 265 °C

Structure (SMILES): O=C(O)CN1CCC2(C=C(c3ccc(Cl)c(F)c3)c3ccccc3O2)CC1 (as salt: hydrochloride) [Example 8, 1′-Carboxymethyl-4-(4-chloro-3-fluorophenyl)spiro[2H-1-benzopyran-2,4′-piperidine]hydrochloride]
- melting point: 263 to 274 °C

Structure (SMILES): O=C(O)CN1CCC2(C=C(c3ccc4ccccc4c3)c3ccccc3O2)CC1 (as salt: hydrochloride) [Example 10, 1′-Carboxymethyl-4-(2-naphthyl)spiro[2H-1-benzopyran-2,4′-piperidine]hydrochloride]
- melting point: 253 to 264 °C

Structure (SMILES): COc1ccc(C2=CC3(CCN(CC(=O)O)CC3)Oc3ccccc32)cc1F (as salt: hydrochloride) [Example 11, 1′-Carboxymethyl-4-(3-fluoro-4-methoxyphenyl)spiro[2H-1-benzopyran-2,4′-piperidine]hydrochloride]
- melting point: 252 to 261 °C

Structure (SMILES): CN(C)c1ccc(C2=CC3(CCN(CC(=O)O)CC3)Oc3ccccc32)cc1 (as salt: hydrochloride) [Example 24, 1′-Carboxymethyl-4-[4-(N,N-dimethylamino)phenyl]spiro[2H-1-benzopyran-2,4′-piperidine]hydrochloride]
- melting point: 238 to 250 °C

Structure (SMILES): O=C(O)CN1CCC2(C=C(c3ccc(Cl)cc3)c3ccccc3O2)CC1 [Example 2, 1′-Carboxymethyl-4-(4-chlorophenyl)spiro[2H-1-benzopyran-2,4′-piperidine]hydrochloride]
- IC50 [1]: 1000 nM

Structure (SMILES): Cc1ccc(C2=CC3(CCN(CC(=O)O)CC3)Oc3ccccc32)cc1.Cl [Example 4, 1′-Carboxymethyl-4-(4-methylphenyl)spiro[2H-1-benzopyran-2,4′-piperidine]hydrochloride]
- Inhibition of glycine transport by hGlyT-1, pIC50 [1]: 6.3

Structure (SMILES): O=C(O)CN1CCC2(C=C(c3ccc(Cl)c(F)c3)c3ccccc3O2)CC1 [Example 8, 1′-Carboxymethyl-4-(4-chloro-3-fluorophenyl)spiro[2H-1-benzopyran-2,4′-piperidine]hydrochloride]
- IC50 [1]: 501 nM

Structure (SMILES): O=C(O)CN1CCC2(C=C(c3ccc4ccccc4c3)c3ccccc3O2)CC1 [Example 10, 1′-Carboxymethyl-4-(2-naphthyl)spiro[2H-1-benzopyran-2,4′-piperidine]hydrochloride]
- IC50 [1]: 631 nM

Structure (SMILES): COc1ccc(C2=CC3(CCN(CC(=O)O)CC3)Oc3ccccc32)cc1F [Example 11, 1′-Carboxymethyl-4-(3-fluoro-4-methoxyphenyl)spiro[2H-1-benzopyran-2,4′-piperidine]hydrochloride]
- IC50 [1]: 631 nM

Structure (SMILES): CC(C)(C)c1ccc(C2=CC3(CCN(CC(=O)O)CC3)Oc3ccccc32)cc1 [Example 12, 1′-Carboxymethyl-4-(4-tert-butylphenyl)spiro[2H-1-benzopyran-2,4′-piperidine]hydrochloride]
- IC50 [1]: 398 nM

Structure (SMILES): Cl.O=C(O)CN1CCC2(C=C(c3ccc4c(c3)OCO4)c3ccccc3O2)CC1 [Example 14, 4-(1,3-Benzodioxolo)-1′-carboxymethylspiro[2H-1-benzopyran-2,4′-piperidine]hydrochloride]
- Inhibition of glycine transport by hGlyT-1, pIC50 [1]: 6.1

Structure (SMILES): CN(C)c1ccc(C2=CC3(CCN(CC(=O)O)CC3)Oc3ccccc32)cc1 [Example 24, 1′-Carboxymethyl-4-[4-(N,N-dimethylamino)phenyl]spiro[2H-1-benzopyran-2,4′-piperidine]hydrochloride]
- IC50 [1]: 631 nM

Structure (SMILES): Cc1ccc(C2=CC3(CCN(CC(=O)O)CC3)Oc3ccccc32)cc1F [Example 28, 1′-Carboxymethyl-4-(3-fluoro-4-methylphenyl)spiro[2H-1-benzopyran-2,4′-piperidine]hydrochloride]
- IC50 [1]: 316 nM

Structure (SMILES): Cl.O=C(O)CN1CCC2(C=C(c3ccc4c(c3)OC(F)(F)O4)c3ccccc3O2)CC1 [Example 33, 1′-Carboxymethyl-4-(2,2-difluoro-1,3-benzodioxolo)spiro[2H-1-benzopyran-2,4′-piperidine]hydrochloride]
- Inhibition of glycine transport by hGlyT-1, pIC50 [1]: 6.2

Structure (SMILES): Cc1ccc(C2=CC3(CCN(CC(=O)O)CC3)Oc3cc(Cl)ccc32)cc1F [Example 35, 1′-Carboxymethyl-7-chloro-4-(3-fluoro-4-methylphenyl)spiro[2H-1-benzopyran-2,4′-piperidine]hydrochloride]
- IC50 [1]: 501 nM

Structure (SMILES): COc1c(F)cc(C2=CC3(CCN(CC(=O)O)CC3)Oc3ccccc32)cc1F [Example 36, 1′-Carboxymethyl-4-(3,5-difluoro-4-methoxyphenyl)spiro[2H-1-benzopyran-2,4′-piperidine]hydrochloride]
- IC50 [1]: 398 nM

Structure (SMILES): CN(C)c1ccc(C2=CC3(CCN(CC(=O)O)CC3)Oc3ccccc32)cc1F [Example 37, 1′-Carboxymethyl-4-(4-dimethylamino-3-fluorophenyl)spiro[2H-1-benzopyran-2,4′-piperidine]hydrochloride]
- IC50 [1]: 398 nM

Structure (SMILES): CN(C)c1c(F)cc(C2=CC3(CCN(CC(=O)O)CC3)Oc3ccccc32)cc1F [Example 38, 1′-Carboxymethyl-4-(3,5-difluoro-4-dimethylaminophenyl)spiro[2H-1-benzopyran-2,4′-piperidine]hydrochloride]
- IC50 [1]: 251 nM

Structure (SMILES): O=C(O)CN1CCC2(C=C(c3ccc(Br)c(F)c3)c3ccccc3O2)CC1 [Example 39, 4-(4-Bromo-3-fluorophenyl)-1′-carboxymethylspiro[2H-1-benzopyran-2,4′-piperidine]hydrochloride]
- IC50 [1]: 794 nM

Structure (SMILES): CCCOc1ccc(C2=CC3(CCN(CC(=O)O)CC3)Oc3ccccc32)cc1F [Example 48, 1′-Carboxymethyl-4-(3-fluoro-4-n-propoxyphenyl)spiro[2H-1-benzopyran-2,4′-piperidine]hydrochloride]
- IC50 [1]: 501 nM

Structure (SMILES): CCCCOc1ccc(C2=CC3(CCN(CC(=O)O)CC3)Oc3ccccc32)cc1F [Example 49, 1′-Carboxymethyl-4-(3-fluoro-4-n-butoxyphenyl)spiro[2H-1-benzopyran-2,4′-piperidine]hydrochloride]
- IC50 [1]: 794 nM

Structure (SMILES): C=CCOc1c(F)cc(C2=CC3(CCN(CC(=O)O)CC3)Oc3ccccc32)cc1F [Example 55, 4-(4-Allyloxy-3,5-difluorophenyl)-1′-carboxymethylspiro[2H-1-benzopyran-2,4′-piperidine]hydrochloride]
- IC50 [1]: 251 nM

Structure (SMILES): C#CCOc1c(F)cc(C2=CC3(CCN(CC(=O)O)CC3)Oc3ccccc32)cc1F [Example 57, 1′-Carboxymethyl-4-(3,5-difluoro-4-propargyloxyphenyl)spiro[2H-1-benzopyran-2,4′-piperidine]hydrochloride]
- IC50 [1]: 251 nM

Structure (SMILES): O=C(O)CN1CCC2(C=C(c3cc(F)c(OCC(F)(F)F)c(F)c3)c3ccccc3O2)CC1 [Example 59, 1′-Carboxymethyl-4-(3,5-difluoro-4-trifluoroethoxyphenyl)spiro[2H-1-benzopyran-2,4′-piperidine]hydrochloride]
- IC50 [1]: 251 nM
